One data set has as its system FaDu cells. Nature of the data set: Protection of FaDu cells from growth inhibition by hypoxanthine, thymidine, leucovorin. Type of data set: cell-based, human. The procedure: Compound 113-161 was also tested for its ability to inhibit the growth of FaDu human squamous cell carcinoma cell lines. Performance was tested against MTX using hypoxanthine (Hx) and Thymidine (TdR).
Protection after 120 hours with di-LV was also determined. All of the tested compounds reversed inhibition with leucovorin.

For a further data set, the target named is L. casei DHFR (Lacticaseibacillus casei, UniProt P00381). The data set is described as follows: Inhibition of Lactobacillus casei DHFR. The format is biochemical.
Data set [1] has as its target E-coli thymidylate synthase (ecTS) (Escherichia coli, UniProt P0A884). Nature of the data set: Inhibition of E. coli thymidylate synthase. The format is biochemical. The conditions noted are these: b353; read-out: inhibition of TS from E. coli. The procedure:
All of the compounds were tested against human cells, L. casei, E. coli, and S. faecium.

In the next data set the test system is R2 cells. The data set is described as follows: Growth inhibition of R2 subline (MTX-transport deficient). Type of data set: cell-based. The conditions noted are these: Homo sapiens; Table 23; continuous exposure; read-out: Growth inhibition EC50, R2 (↓ transport).
A further data set concerns the target L. casei TS (Lacticaseibacillus casei, UniProt P00469). Nature of the data set: Inhibition of thymidylate synthase (TS), L. casei. Type of data set: biochemical, Lactobacillus casei.
The next data set concerns R1 cells. The data set is described as follows: Growth inhibition of R1 subline (increased DHFR). The conditions noted are these: Homo sapiens; Table 23; continuous exposure; read-out: Growth inhibition EC50, R1 (↑ DHFR). The format is cell-based.
Another data set has as its target TS from P. carinii (Pneumocystis carinii, UniProt P13100). Nature of the data set: Inhibition of P. carinii TS. Type of data set: biochemical. The conditions noted are these: b353.
For another data set, the system named is CCRF-CEM cells. The data set is described as follows: Growth inhibition of CCRF-CEM human leukemia cells, continuous exposure. The conditions noted are these: Table 23, continuous exposure, read-out: Growth inhibition EC50, CEM (sensitive). The format is cell-based.
For the next data set, the system named is R30dm cells. The data set is described as follows: Growth inhibition of R30dm subline (decreased polyglutamate synthase). The format is cell-based. The conditions noted are these: Homo sapiens, Table 23, continuous exposure, read-out: Growth inhibition EC50, R30dm (decreased FPGS).
Substrate in data set [2]: Nc1nc(N)c2nc(CNc3ccc(C(=O)N[C@@H](CCC(=O)O)C(=O)O)cc3)cnc2n1
The data set is described as follows: Substrate activity for CCRF-CEM folylpolyglutamate synthetase. The conditions noted are these: substrate for FPGS. The format is biochemical, human. The protocol:
(§1) Aminopterin is a classical 2,4-diamino antifolate substrate.
(§2) Compounds 33 and 34 were also evaluated for their substrate activity in CCRF-CEM human leukemia folylpolyglutamate synthetase; the compounds were compared against aminopterin.

Substrate in data set [3]: Nc1nc(N)c2c(CCc3ccc(C(=O)N[C@@H](CCC(=O)O)C(=O)O)cc3)coc2n1
The data set is described as above. Type of data set: biochemical, human. The conditions noted are these: other: Table 18; substrate for FPGS. The procedure:
as §1, §2

A value given as a limit tells only on which side of the number the result lay.

Sequence of E-coli thymidylate synthase (ecTS) (P0A884 whole entry): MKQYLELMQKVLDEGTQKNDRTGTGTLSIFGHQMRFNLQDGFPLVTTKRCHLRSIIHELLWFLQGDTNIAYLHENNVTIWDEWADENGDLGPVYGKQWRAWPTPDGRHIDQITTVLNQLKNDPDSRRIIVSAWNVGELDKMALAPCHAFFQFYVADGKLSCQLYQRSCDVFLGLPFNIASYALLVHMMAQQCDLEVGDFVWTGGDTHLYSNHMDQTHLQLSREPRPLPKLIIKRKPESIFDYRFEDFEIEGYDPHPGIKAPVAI
Sequence of L. casei TS (P00469 whole entry): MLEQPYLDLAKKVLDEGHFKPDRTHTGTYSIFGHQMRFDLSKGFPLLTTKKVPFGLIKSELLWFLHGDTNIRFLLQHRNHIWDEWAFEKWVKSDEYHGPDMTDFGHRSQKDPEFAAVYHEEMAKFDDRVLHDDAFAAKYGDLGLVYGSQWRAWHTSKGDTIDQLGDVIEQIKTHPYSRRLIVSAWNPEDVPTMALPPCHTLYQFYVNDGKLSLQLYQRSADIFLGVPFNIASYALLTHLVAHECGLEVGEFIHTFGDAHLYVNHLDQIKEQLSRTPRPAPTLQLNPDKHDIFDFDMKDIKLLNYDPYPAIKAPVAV
Sequence of TS from P. carinii (P13100 whole entry): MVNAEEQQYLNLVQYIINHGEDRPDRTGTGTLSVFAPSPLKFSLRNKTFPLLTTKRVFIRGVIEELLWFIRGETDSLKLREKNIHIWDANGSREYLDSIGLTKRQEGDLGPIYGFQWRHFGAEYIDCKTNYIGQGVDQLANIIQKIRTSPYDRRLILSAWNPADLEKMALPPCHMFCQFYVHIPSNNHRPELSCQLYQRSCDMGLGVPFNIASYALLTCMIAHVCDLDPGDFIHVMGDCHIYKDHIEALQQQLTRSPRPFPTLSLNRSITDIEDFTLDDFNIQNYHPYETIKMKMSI
Sequence of L. casei DHFR (P00381 whole entry): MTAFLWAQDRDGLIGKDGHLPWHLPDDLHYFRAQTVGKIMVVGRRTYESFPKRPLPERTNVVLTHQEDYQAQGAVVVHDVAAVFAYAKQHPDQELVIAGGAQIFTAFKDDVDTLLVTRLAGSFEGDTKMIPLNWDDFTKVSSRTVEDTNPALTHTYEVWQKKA

As to `Cc1nc(N)nc2[nH]cc(CCc3ccc(C(=O)N[C@@H](CCC(=O)O)C(=O)O)cc3)c12` [Compound 113-161], the “protection study with hypoxanthine (Hx) and thymidine (TdR)” value in the data set on FaDu cells was “almost completely reversed the TS inhibition”.

For the molecule `Nc1nc2[nH]cc(CNc3ccc(C(=O)N[C@@H](CCC(=O)O)C(=O)O)cc3)c2c(=O)[nH]1` [Compound 407], the IC50 against L. casei DHFR was 6900 nM; in data set [1], greater than 12000 nM; on L. casei TS, 46000 nM; against TS from P. carinii it was 5800 nM. Moreover, the EC50 with R2 cells came to 310 ± 30 nM; in the data set with R1 cells it was 200 ± 20 nM; in the data set with CCRF-CEM cells, 79 nM; in the data set with R30dm cells it was 120 ± 10 nM.

B1: CCRF-CEM human leukemia cell folylpolyglutamate synthetase (Homo sapiens) (protein)
chain: MEYQDAVRMLNTLQTNAGYLEQVKRQRGDPQTQLEAMELYLARSGLQVEDLDRLNIIHVTGTKGKGSTCAFTECILRSYGLKTGFFSSPHLVQVRERIRINGQPISPELFTKYFWRLYHRLEETKDGSCVSMPPYFRFLTLMAFHVFLQEKVDLAVVEVGIGGAYDCTNIIRKPVVCGVSSLGIDHTSLLGDTVEKIAWQKGGIFKQGVPAFTVLQPEGPLAVLRDRAQQISCPLYLCPMLEALEEGGPPLTLGLEGEHQRSNAALALQLAHCWLQRQDRHGAGEPKASRPGLLWQLPLAPVFQPTSHMRLGLRNTEWPGRTQVLRRGPLTWYLDGAHTASSAQACVRWFRQALQGRERPSGGPEVRVLLFNATGDRDPAALLKLLQPCQFDYAVFCPNLTEVSSTGNADQQNFTVTLDQVLLRCLEHQQHWNHLDEEQASPDLWSAPSPEPGGSASLLLAPHPPHTCSASSLVFSCISHALQWISQGRDPIFQPPSPPKGLLTHPVAHSGASILREAAAIHVLVTGSLHLVGGVLKLLEPALSQ
notes: substrates for human leukemia cell CCRF-CEM folylpolyglutamate synthetase; endogenous in cells; host or cells: CCRF-CEM human leukemia cells
For B1, the Km in data set [2] (other: Table 10) came to 4.3 ± 0.2 µM; in data set [2] (other: Table 18) it was 4.8 ± 0.7 µM; in data set [3] it was 8.5 ± 2.1 µM.

(Values after patent publication US6962920B2, “Pyrimidine derivatives and methods of making and using these derivatives” (Duquesne University of the Holy Ghost, priority 1992, dated 2005).)
